Key:
[1] = test system: formalin-induced paw licking response in mice; experiment: Formalin-induced paw licking; type: in vivo, mouse (Kunming); conditions: 5 mg/kg i.p., n = 6
Experimental: Since Nav1.7 plays an important role in pain, the analgesic effects of JZTX-34 were examined in three animal models (formalin-induced paw licking, acetic acid-induced writhing, and hot plate). Intraplantar injection of formalin causes pain and can be divided into two phases. The early phase was neurogenic pain and usually occurred within […]), and the late phase was inflammatory pain lasting from 15 to 30 min).
(§1) Figure 6 Effects of JZTX-34 on pain. (A) Effects of JZTX-34 on the early phase (0–5 min) and late phase (15–30 min) of formalin-induced paw licking response in mice. (B) Effects of JZTX-34 on the acetic acid-induced writhing response in mice. (C)Effects of JZTX-34 on the hot plate test in mice.
(§2) The synthesized JZTX-34 was obtained according to the procedure as previously described. […] Rats (Sprague-Dawley) and Kunming mice were maintained in the Laboratory of Protein Chemistry of Hunan Normal University. All of the experimental involving animals were approved by the Animal Care and Use Committee of Hunan Normal University (2016-273, 13 October 2016).
Formalin test was performed according to the method described previously. […] After test samples were intraperitoneally (i.p.) injected, 5% formalin (20 μL) was injected to the plantar surface of right hind paw. The time spent licking the injected paw was counted every 5 min. Phase I was defined as 0–10 min, and Phase II defined as […].
(§3) Data from Axon 700B patch clamp were analyzed by Clampfit10.0 (Molecular Devices, Sunnyvale, CA, USA). Dose-response curves were fitted by the Hill logistic equation: y = 1 − (1 − fmax)/[…]. In this equation, n stands an empirical Hill coefficient and fmax is the fraction of current resistant to inhibition at high toxin (Tx) concentration. The G-V curves were obtained by calculating the conductance (G) at each voltage (V) using the equation G = I/(V1 − Vrev), with Vrev being the reversal potential determined for each cell individually. G-V curves were fitted using a Boltzmann equation—y = 1/(1 + exp[(Va − V)/κ])—in which Va, V, and κ represent midpoint voltage of kinetics, test potential, and slope factor, respectively. […] Statistical significance was calculated using Student’s t-test and was defined as p < 0.05.

hot plate test in mice = experiment: Hot plate test; type: in vivo, mouse (Kunming); conditions: 5 mg/kg i.p., baseline about 10 s, n = 6
Experimental: as §1
Mice with a latency time about 10 s were selected for the hot plate test. […] After administration of test samples, the latency time was recorded at the time points of 30 min, 60 min, 120 min, and 180 min (Figure 6C). Negative control animals received the same volume of vehicle.
as §2
Mice were put on a hot plate apparatus (model HZ66-ZH-YLS-6B, Shanghai, China) in order to test response time to a thermal stimulus. The responses time of mice at about 10 s was selected for the test. […] Hind paw licking or jumping were regarded as a sign to avoid heat nociception.
as §3

[2] = test system: other sodium channel subtypes; conditions: literature statement, no reference given; cited from earlier work
[3] = test system: inflammatory pain and neuropathic pain; conditions: cited from earlier work
Nav1.7 = conditions: cited from earlier work; for potency on Nav1.7 (literature): ref [14],[15]
Source text: Chronic pain is one of the most difficult clinical problems. As Nav1.7 is considered one of the most attractive targets for relieving chronic pain, scientist have paid a lot of effort to look for a selective inhibitor of Nav1.7. Several small molecules with selectivity on Nav1.7 are currently undergoing clinical development, including PF-05089771 (Pfizer, New York, NY, USA) and CNV1014802 (Convergence Pharmaceuticals, London , UK). Compared to small molecules, peptide toxins have better subtype selectivity due to their larger pharmacophore. Spider venoms are a rich source of ion ch ... || Many peptide toxins, which alter gating properties of VGSCs, have been identified to trap the DIIS3-S4 linker of sodium channels. However, the molecular mechanisms of inhibition of sodium currents by peptide toxins are greatly divergent. […] Pro ...

[4] = test system: C-fiber compound action potential; set-up: method as in PMID 28045073; conditions: desheathed cutaneous nerves; ref [27]; cited from earlier work

| Compound | paw licking time, early phase ([1]; control 145.5 s) [s] | paw licking time, late phase ([1]; control 414.5 s) [s] | hot plate latency (hot plate test in mice; 30 min) | hot plate latency (hot plate test in mice; 60 min) [s] | activity on other sodium channel subtypes [2] | relief of acute inflammatory and chronic neuropathic pain ([3]; ref [28]) | potency on Nav1.7 (literature) (Nav1.7) | effect on channel gating (HWTX-IV, literature) (Nav1.7; ref [25]) | C-fiber compound action potential [4] | analgesic effect on severe pain ([3]; ref [27]) | effect on channel gating (ProTx-II, literature) (Nav1.7; ref [26]) |
| --- | --- | --- | --- | --- | --- | --- | --- | --- | --- | --- | --- |
| CN1CC[C@]23c4c5ccc(O)c4O[C@H]2[C@@H](O)C=C[C@H]3[C@H]1C5 [morphine, reference compound] | 35.3 | 265 | 24.8 | 12.2 |  |  |  |  |  |  |  |
| HWTX-IV |  |  |  |  | also show activity on other sodium channel subtypes | efficiently eased the acute inflammatory pain and chronic neuropathic pain | very potent Nav1.7 blockers | without affecting activation or inactivation of channels |  |  |  |
| ProTx-II |  |  |  |  | also show activity on other sodium channel subtypes |  | very potent Nav1.7 blockers |  | completely blocked the C-fiber compound action potential | exerted a strong analgesic effect on severe pain | modified the voltage dependence of VGSC inactivation |
